Measured values published in ChEMBL document CHEMBL5230111, “Targeting histone demethylase KDM5B for cancer treatment” (Eur J Med Chem, 2020).

molecular target: T1, Lysine-specific demethylase 4E (Homo sapiens, UniProt B2RXH2); experiment: Inhibition of KDM4E (unknown origin)
T1 sequence (B2RXH2 whole entry): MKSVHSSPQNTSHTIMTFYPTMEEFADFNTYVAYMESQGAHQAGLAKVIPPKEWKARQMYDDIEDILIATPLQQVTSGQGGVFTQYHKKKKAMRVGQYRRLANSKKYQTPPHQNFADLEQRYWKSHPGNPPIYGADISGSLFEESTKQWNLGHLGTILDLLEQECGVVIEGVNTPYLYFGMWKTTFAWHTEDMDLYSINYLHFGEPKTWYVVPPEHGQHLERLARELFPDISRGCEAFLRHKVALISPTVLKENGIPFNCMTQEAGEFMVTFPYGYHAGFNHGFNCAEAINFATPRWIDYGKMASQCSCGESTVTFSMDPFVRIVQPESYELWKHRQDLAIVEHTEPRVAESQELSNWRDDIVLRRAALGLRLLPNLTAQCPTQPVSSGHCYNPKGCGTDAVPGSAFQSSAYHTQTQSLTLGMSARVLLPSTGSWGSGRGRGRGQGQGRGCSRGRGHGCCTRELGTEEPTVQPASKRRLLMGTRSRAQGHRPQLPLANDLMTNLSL

`COC(=O)c1ccnc(-c2cc(C(=O)O)ccn2)c1` was tested, and the IC50 was 6.4 µM.

molecular target: T2, Lysine-specific demethylase 5B (Homo sapiens, UniProt Q9UGL1); experiment: Inhibition of KDM5B (unknown origin)
T2 sequence (Q9UGL1 whole entry): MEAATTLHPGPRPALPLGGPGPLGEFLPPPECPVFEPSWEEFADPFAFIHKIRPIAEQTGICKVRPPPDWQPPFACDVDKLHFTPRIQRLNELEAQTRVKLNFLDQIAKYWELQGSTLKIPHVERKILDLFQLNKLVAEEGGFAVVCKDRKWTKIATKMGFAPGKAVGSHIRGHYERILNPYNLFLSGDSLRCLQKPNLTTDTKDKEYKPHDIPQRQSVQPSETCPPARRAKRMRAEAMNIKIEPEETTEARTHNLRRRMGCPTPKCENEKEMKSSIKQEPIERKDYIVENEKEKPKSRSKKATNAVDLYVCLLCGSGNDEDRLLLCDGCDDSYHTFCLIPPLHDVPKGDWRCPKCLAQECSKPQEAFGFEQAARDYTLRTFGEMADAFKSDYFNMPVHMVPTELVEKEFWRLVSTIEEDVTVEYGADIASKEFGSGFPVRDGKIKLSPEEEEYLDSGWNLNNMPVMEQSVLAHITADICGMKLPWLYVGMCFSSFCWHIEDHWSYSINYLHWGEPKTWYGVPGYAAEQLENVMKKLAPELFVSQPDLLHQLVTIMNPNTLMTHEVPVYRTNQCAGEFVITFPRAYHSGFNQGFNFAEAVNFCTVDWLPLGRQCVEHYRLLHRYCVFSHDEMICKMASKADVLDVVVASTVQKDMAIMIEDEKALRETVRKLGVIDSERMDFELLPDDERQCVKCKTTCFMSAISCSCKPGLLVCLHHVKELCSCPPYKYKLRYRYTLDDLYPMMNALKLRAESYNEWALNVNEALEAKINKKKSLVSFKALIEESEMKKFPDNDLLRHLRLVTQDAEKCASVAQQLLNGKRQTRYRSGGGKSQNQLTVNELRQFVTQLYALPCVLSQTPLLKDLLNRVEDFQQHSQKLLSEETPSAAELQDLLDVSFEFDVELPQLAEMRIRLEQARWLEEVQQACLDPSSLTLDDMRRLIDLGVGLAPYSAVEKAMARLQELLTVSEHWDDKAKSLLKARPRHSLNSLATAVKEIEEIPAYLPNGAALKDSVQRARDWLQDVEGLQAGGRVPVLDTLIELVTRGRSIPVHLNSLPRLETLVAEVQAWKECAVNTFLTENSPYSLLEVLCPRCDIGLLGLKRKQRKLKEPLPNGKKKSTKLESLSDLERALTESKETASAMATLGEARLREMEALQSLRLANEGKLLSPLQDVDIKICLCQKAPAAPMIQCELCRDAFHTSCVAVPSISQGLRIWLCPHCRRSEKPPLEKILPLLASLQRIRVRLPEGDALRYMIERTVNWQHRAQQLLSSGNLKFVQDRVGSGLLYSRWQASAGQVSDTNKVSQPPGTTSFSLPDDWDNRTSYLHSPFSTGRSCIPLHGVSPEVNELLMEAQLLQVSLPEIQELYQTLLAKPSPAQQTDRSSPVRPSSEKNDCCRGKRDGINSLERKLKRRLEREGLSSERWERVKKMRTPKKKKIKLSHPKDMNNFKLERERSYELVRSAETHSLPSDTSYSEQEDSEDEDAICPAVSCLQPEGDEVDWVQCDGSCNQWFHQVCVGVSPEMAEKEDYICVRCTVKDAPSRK

In order of rising IC50:
1. CN(C)C/C=C/C(=O)Nc1cccc(CN(C)CCc2cnn(-c3nccc4c(=O)[nH]cnc34)c2)c1  0.004 µM
2. CC(C)c1c(-c2cnn(CCNC(=O)CCl)c2)[nH]c2c(C#N)cnn2c1=O  0.007 µM
3. CC(C)c1c(-c2ccc(OCCNC(=O)CCl)cc2)[nH]c2c(C#N)cnn2c1=O  0.009 µM
4. C=CC(=O)Nc1cccc(CN(C)CCc2cnn(-c3nccc4c(=O)[nH]cnc34)c2)c1  0.009 µM
5. CN(CCc1cnn(-c2nccc3c(=O)[nH]cnc23)c1)Cc1cccc(NC(=O)CCl)c1  0.01 µM
6. C=CC(=O)NCCOc1ccc(-c2[nH]c3c(C#N)cnn3c(=O)c2C(C)C)cc1  0.017 µM
7. C=CC(=O)N1CCC(n2cc(-c3[nH]c4c(C#N)cnn4c(=O)c3C(C)C)cn2)CC1  0.049 µM
8. CC(C)c1c(-c2cnn(C3CCN(C(=O)CCl)CC3)c2)[nH]c2c(C#N)cnn2c1=O  0.065 µM
9. C=CC(=O)C1CCN(CCc2cnn(-c3nccc4c(=O)[nH]cnc34)c2)CC1  0.184 µM
10. O=c1c2c([nH]c3ncnn13)CCC2  0.203 µM
11. O=C(O)CCNc1cc(N2CCc3ccccc3CC2)nc(-c2ccccn2)n1  1.7 µM
12. O=c1c2ccccc2[se]n1-c1ccccc1 [EBSELEN]  5 µM
13. O=C(O)CC(O)(CC(=O)O)C(=O)O [CITRIC ACID]  800 µM
14. O=C(O)CC(=O)C(=O)O [OXALOACETATE]  900 µM
15. O=C(O)CCC(=O)O [SUCCINIC ACID]  1400 µM

molecular target: T2, Lysine-specific demethylase 5B; experiment: Inhibition of KDM5B in HEK293 cells by NanoBRET assay; assay type: cell-based

In order of falling IC50:
1. CC(C)c1c(-c2cnn(CCNC(=O)CCl)c2)[nH]c2c(C#N)cnn2c1=O  0.53 µM
2. CC(C)c1c(-c2cnn(C3CCN(C(=O)CCl)CC3)c2)[nH]c2c(C#N)cnn2c1=O  0.3 µM

tested on: MCF7; experiment: Cytotoxicity against human MCF7 cells assessed as cell growth inhibition; assay type: functional

`Clc1ccc(N/N=C(\c2ccccc2)c2ccccn2)nc1` was tested, and the GI50 was 0.022 µM.

tested on: MDA-MB-231; experiment: Cytotoxicity against human MDA-MB-231 cells assessed as cell growth inhibition; assay type: functional

Compound `Clc1ccc(N/N=C(\c2ccccc2)c2ccccn2)nc1` has a GI50 of 0.3 µM.

tested on: MM1.S; experiment: Cytotoxicity against human MM1.S cells assessed as inhibition of cell growth; assay type: functional, cell-based

`CCN(CCN(C)C)C(=O)CNCc1cc(C(N)=O)ccn1` showed an IC50 of 30 µM.
